Source: patent US20240109910A1, “HEXAHYDRO-5,8-EPOXYCYCLOHEPTA[c]PYRAZOLE DERIVATIVES USEFUL AS MODULATORS OF THE CB1 AND / OR CB2 RECEPTORS” (JANSSEN PHARMACEUTICA NV, priority 2019, published 2024)

Assays:
[1] = target: hCB2 receptor (Homo sapiens, UniProt P34972); assay: Agonism of CB2 by detection of cAMP using HTRF; format: cell-based; details: CHO cells stably expressing CB2 receptor; for EC50: cAMP HTRF, forskolin-stimulated, average if tested more than once, read-out: hCB2 CHO EC50; for Emax: normalized to DMSO and maximal activation (5 nM CP55940)
Procedure: (§1) Method for Assaying Agonism of CB1 or CB2 by Detection of cAMP Using Homogeneous Time-Resolved Fluorescence (HTRF®)
(§2) CHOP-K1 cells stably expressing the CB1 receptor (PerkinElmer, ES-110-C) or the CB2 receptor (PerkinElmer, ES-111-CF) were seeded into 384 well white TC-treated plates (Greiner 781080) at 7000 cells per well in Ham's media (Gibco #31765-035) supplemented with 10% FBS (Gibco #16000-044) and 500 μg/mL Geneticin (Gibco #10131-027) and cultured overnight. The next day, plates were washed one time in assay buffer (HBSS with Ca^2+ and Mg^2+ (Corning #21-023-CV)+20 mM HEPES (Corning #25-060-Cl) and 0.01% BSA (Sigma A2153)). In a separate compound plate (Greiner 781201-906), 50 nL of test compound or DMSO was transferred using the Echo 550 (Labcyte), then 40 μL/well of assay buffer with 0.5 mM IBMX, 2 μM Forskolin (Sigma F3917), and 0.01% BSA was added. For the CB1 assay, assay buffer was dumped from the cell plate and fresh assay buffer containing 0.5 mM IBMX (Sigma I5679) was added at 30 μL/well, and the plate was incubated for 1 hr at 37° C., 5% CO2. Following the IBMX pre-treatment step, buffer was dumped from the cell plate, and 20 μL/well of the assay buffer with test compound was transferred into the cell plate with a subsequent incubation of 20 min at room temperature. Reagents for cAMP detection (cisbio 62AM4PEJ) were prepared and subsequently transferred to the cell plate at 20 μL/well. Following a 1 hr incubation at room temperature, the plate was read on the Pherastar FX (BMG, excitation 320 nm, detection at 620 nm (donor) and 665 nm (acceptor)). The ratio of signal at 665 nm/620 nm was determined for each well in the plate. For each assay day, a cAMP standard curve was run in parallel to assess the range of response and determine the concentration of cAMP in each well. Control wells (n=16 of each) with no activation of CB1 receptor (DMSO) and maximal activation (5 nM CP55940, Sigma) were used to normalize the data and to determine signal-to-background ratio and Z′. For the CB2 assay, conditions were as described above for the CB1 assay, except that the IBMX preincubation step was not used and that the 20 min compound incubation step occurred in the incubator at 37° C., 5% CO2.
(§3) EC50 values were calculated from dose response curves by nonlinear regression analysis using PRISM software.
(§4) Representative compounds of the present invention were tested according to the procedures described in Biological Example 1 above, with results as listed in Table 3, below. If a compound was tested more than once (due to multiple samples or batches), then the value listed in Table 3 below represents the average of the measured values.

[2] = target: hCB1 receptor (Homo sapiens, UniProt P21554); assay: Agonism of CB1 by detection of cAMP using HTRF; format: cell-based; details: CHO cells stably expressing CB1 receptor; for EC50: cAMP HTRF, forskolin-stimulated, average if tested more than once, read-out: hCB1 CHO EC50; for Emax: normalized to DMSO and maximal activation (5 nM CP55940)
Procedure: as §1, §2, §3, §4

Sequence of hCB1 receptor (P21554 whole entry): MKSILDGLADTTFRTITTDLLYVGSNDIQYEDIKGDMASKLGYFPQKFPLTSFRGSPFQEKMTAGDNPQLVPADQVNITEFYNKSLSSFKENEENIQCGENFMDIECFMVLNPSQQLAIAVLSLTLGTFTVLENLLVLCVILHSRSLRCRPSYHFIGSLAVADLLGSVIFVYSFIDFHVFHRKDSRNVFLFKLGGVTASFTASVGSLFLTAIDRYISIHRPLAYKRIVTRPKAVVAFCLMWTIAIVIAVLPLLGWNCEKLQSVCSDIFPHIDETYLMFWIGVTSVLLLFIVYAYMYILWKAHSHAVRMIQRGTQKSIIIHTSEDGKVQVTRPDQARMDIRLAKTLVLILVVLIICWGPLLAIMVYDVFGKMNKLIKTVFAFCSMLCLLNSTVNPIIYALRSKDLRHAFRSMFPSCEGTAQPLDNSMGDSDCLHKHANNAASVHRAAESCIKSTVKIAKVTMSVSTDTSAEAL
Sequence of hCB2 receptor (P34972 whole entry): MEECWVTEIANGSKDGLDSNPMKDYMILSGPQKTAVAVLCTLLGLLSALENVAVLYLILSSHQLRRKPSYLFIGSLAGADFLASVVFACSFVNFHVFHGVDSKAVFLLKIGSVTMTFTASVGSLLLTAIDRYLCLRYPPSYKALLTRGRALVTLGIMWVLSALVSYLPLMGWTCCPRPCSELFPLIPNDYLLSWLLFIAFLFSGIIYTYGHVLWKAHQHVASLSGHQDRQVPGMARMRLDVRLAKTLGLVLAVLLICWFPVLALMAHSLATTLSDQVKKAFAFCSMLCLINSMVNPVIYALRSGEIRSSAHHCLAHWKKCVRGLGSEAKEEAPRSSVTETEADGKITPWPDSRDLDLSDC

Row | Structure (SMILES) | EC50 [1] [nM] | Emax [1] [%] | EC50 [2] [nM] | Emax [2] [%]
1 | O=C(NC[C@]12C[C@@H]3C[C@@H](C[C@@H](C3)C1)C2)c1nn(-c2ccc(F)cc2F)c2c1CC1CCC2O1 [Compound 42, N-(((3r,5r,7r)-adamantan-1-yl)methyl)-1-(2,4-difluorophenyl)-1,4,5,6,7,8-hexahydro-5,8-epoxycyclohepta[c]pyrazole-3-carboxamide] | 10.3 | 77.1 | 260 | 98.2
2 | O=C(NC12CCC(CC1)CC2)c1nn(-c2cnccn2)c2c1CC1CCC2O1 (stereo not shown) [Compound 14, N-(bicyclo[2.2.2]octan-1-yl)-1-(pyrazin-2-yl)-1,4,5,6,7,8-hexahydro-5,8-epoxycyclohepta[c]pyrazole-3-carboxamide] | 0.06 | 100 | 61.8 | 103
3 | CC(C)(C)[C@@H](CO)NC(=O)c1nn(-c2cnccn2)c2c1C[C@H]1CC[C@@H]2O1 [Compound 8, (5R,8S)-N-((S)-1-hydroxy-3,3-dimethylbutan-2-yl)-1-(pyrazin-2-yl)-1,4,5,6,7,8-hexahydro-5,8-epoxycyclohepta[c]pyrazole-3-carboxamide] | 0.09 | 100 | 422 | 111
4 | CC(C)(C)c1nnc(-c2nn(-c3c[n+]([O-])ccn3)c3c2CC2CCC3O2)s1 (stereo not shown) [Compound 27, 3-(3-(5-(tert-butyl)-1,3,4-thiadiazol-2-yl)-5,6,7,8-tetrahydro-5,8-epoxycyclohepta[c]pyrazol-1(4H)-yl)pyrazine 1-oxide] | 0.06 | 99 | 130 | 94.9
5 | O=C(NC1(C(F)(F)F)CCC1)c1nn(-c2c[n+]([O-])ccn2)c2c1CC1CCC2O1 (stereo not shown) [Compound 18, 3-(3-((1-(trifluoromethyl)cyclobutyl)carbamoyl)-5,6,7,8-tetrahydro-5,8-epoxycyclohepta[c]pyrazol-1(4H)-yl)pyrazine 1-oxide] | 0.04 | 99.9 | 198 | 90.7
6 | O=C(NC12CC(C1)C2)c1nn(-c2cnccn2)c2c1CC1CCC2O1 (stereo not shown) [Compound 12, N-(bicyclo[1.1.1]pentan-1-yl)-1-(pyrazin-2-yl)-1,4,5,6,7,8-hexahydro-5,8-epoxycyclohepta[c]pyrazole-3-carboxamide] | 0.24 | 99.5 | 1510 | 90.8
7 | O=C(NC12CC3CC(CC1C3)C2)c1nn(-c2cnccn2)c2c1CC1CCC2O1 [Compound 13, N-((2R,3as,5S,6as)-hexahydro-2,5-methanopentalen-3a(1H)-yl)-1-(pyrazin-2-yl)-1,4,5,6,7,8-hexahydro-5,8-epoxycyclohepta[c]pyrazole-3-carboxamide] | 0.02 | 100 | 16.6 | 111
8 | CCC(C)(C)c1noc(-c2nn(-c3c[n+]([O-])ccn3)c3c2CC2CCC3O2)n1 (stereo not shown) [Compound 25, 3-(3-(3-(tert-pentyl)-1,2,4-oxadiazol-5-yl)-5,6,7,8-tetrahydro-5,8-epoxycyclohepta[c]pyrazol-1(4H)-y)pyrazine 1-oxide] | 0.02 | 99.5 | 114 | 98.9
9 | CC(C)(C)c1noc(-c2nn(-c3c[n+]([O-])ccn3)c3c2CC2CCC3O2)n1 (stereo not shown) [Compound 26, 3-(3-(3-(tert-butyl)-1,2,4-oxadiazol-5-yl)-5,6,7,8-tetrahydro-5,8-epoxycyclohepta[c]pyrazol-1(4H)-yl)pyrazine 1-oxide] | 0.13 | 100 | 4920 | 73.3
10 | CC(C)(C)c1cnc(-c2nn(-c3c[n+]([O-])ccn3)c3c2CC2CCC3O2)s1 (stereo not shown) [Compound 24, 3-(3-(5-(tert-butyl)thiazol-2-yl)-5,6,7,8-tetrahydro-5,8-epoxycyclohepta[c]pyrazol-1(4H)-yl)pyrazine 1-oxide] | 0.06 | 97.8 | 65.7 | 95.5
